Values of other authors in paper PMC8583718, “Transient Fluorescence Labeling: Low Affinity—High Benefits” (International Journal of Molecular Sciences, 2021).
“And” between values parts separate entries of the source, which are not always exact repeats. Equal entries are not always repeated. Where two headings read alike, the source gives them in different places.

Tests used:
mFAP1 = biological target: mFAP1; design: method as in PMID 30209393; settings: mFAP1 with DFHBI; read-out: dissociation constant
mFAP2 = biological target: mFAP2; design: method as in PMID 30209393; settings: mFAP2 with DFHBI; read-out: dissociation constant
[1] = biological target: dimeric transcription factors LmrR and RamR; design: method as in PMID 33913682; settings: modified LmrR and RamR
Y-FAST = system: Y-FAST; design: method as in PMID 26711992
DNA = biological target: DNA; design: method as in PMID 26423723; settings: staining of DNA
UnaG = biological target: UnaG; design: method as in PMID 23768684; settings: bilirubin–UnaG
actin structures = system: actin structures; design: method as in PMID 26317264; settings: compared among actin tags
F-actin [2] = biological target: F-actin; design: method as in PMID 18536722
G-actin = system: G-actin; design: method as in PMID 18536722; settings: G-actin compared with F-actin
F-actin [3] = biological target: F-actin; design: method as in PMID 15826935; settings: binding to F-actin
microtubules [4] = biological target: microtubules; design: method as in PMID 12773533; settings: interaction with microtubules
microtubules [5] = biological target: microtubules; design: method as in PMID 29662074; settings: interaction with microtubules
[6] = biological target: protein–fluorogen complexes; settings: UnaG system

In the case of `CC1=N/C(=C\c2cc(F)c(O)c(F)c2)C(=O)N1C` [DFHBI, 3,5-difluoro-4-hydroxybenzylidene imidazolinone], the Kd (mFAP1) is listed as 180 nM, the Kd (mFAP2) is listed as 560 nM and the Dissociation constants [1] is listed as “submicromoles to several micromoles”.

For `Cc1cc(C=C2SC(=S)NC2=O)ccc1O` [HMBR, 4-hydroxy-3-methylbenzylidene rhodanine], the “residence time in the complex” value (Y-FAST; 25 °C, HMBR–Y-FAST) is given as 160 ms and the Kd (Y-FAST; HMBR in complex with Y-FAST) is given as about 130 nM.

For `CN1CCN(c2ccc3nc(-c4ccc5nc(-c6ccc(OCCCCNC(=O)c7ccc(C(=O)[O-])c(C8=C9C=CC(=[N+](C)C)C=C9[Si](C)(C)c9cc(N(C)C)ccc98)c7)cc6)[nH]c5c4)[nH]c3c2)CC1` [SiR-Hoechst], the Kd (DNA) is given as 8400 nM.

In the case of `C=CC1=C(C)/C(=C/c2[nH]c(Cc3[nH]c(/C=C4\NC(=O)C(C)=C4C=C)c(C)c3CCC(=O)O)c(CCC(=O)O)c2C)NC1=O` [bilirubin], the Kd (UnaG) is listed as 0.098 nM.

In the case of “F-tractin: residues 10–52 of rat inositol 1,4,5-triphosphate-3-kinase A (MARPRGAGPCSPGLERAPRRSVGELRLLFEARCAAVAAAAAAG; UniProt P17105 10-52, looked up, fragment)”, the exchange rate (actin structures) is given as “highest exchange rate among all actin tags”.

For “Lifeact: short (17 amino acids) fragment of actin filament-binding protein Abp140 from Saccharomyces cerevisiae”, the Kd (F-actin [2]; affinity to F-actin) is listed as ~2200 nM and 2200 nM, the exchange of probes (F-actin [2]; on F-actin) is listed as at most 0.4 s and the “higher affinity to G-actin” value (G-actin) is listed as 10 fold.

B1: Utr261: first 261 amino acid residues of utrophin, the filament-crosslinking protein (protein, UniProt P46939 1-261, looked up, fragment)
chain: MAKYGEHEASPDNGQNEFSDIIKSRSDEHNDVQKKTFTKWINARFSKSGKPPINDMFTDLKDGRKLLDLLEGLTGTSLPKERGSTRVHALNNVNRVLQVLHQNNVELVNIGGTDIVDGNHKLTLGLLWSIILHWQVKDVMKDVMSDLQQTNSEKILLSWVRQTTRPYSQVNVLNFTTSWTDGLAFNAVLHRHKPDLFSWDKVVKMSPIERLEHAFSKAQTYLGIEKLLDPEDVAVQLPDKKSIIMYLTSLFEVLPQQVTID
For B1, the Kd (F-actin [3]) is given as 18600 nM.

B2: MAP4: microtubule-associated protein (protein, UniProt P27816 2-1152, looked up)
Microtubule-associated …: ADLSLADALTEPSPDIEGEIKRDFIATLEAEAFDDVVGETVGKTDYIPLLDVDEKTGNSESKKKPCSETSQIEDTPSSKPTLLANGGHGVEGSDTTGSPTEFLEEKMAYQEYPNSQNWPEDTNFCFQPEQVVDPIQTDPFKMYHDDDLADLVFPSSATADTSIFAGQNDPLKDSYGMSPCNTAVVPQGWSVEALNSPHSESFVSPEAVAEPPQPTAVPLELAKEIEMASEERPPAQALEIMMGLKTTDMAPSKETEMALAKDMALATKTEVALAKDMESPTKLDVTLAKDMQPSMESDMALVKDMELPTEKEVALVKDVRWPTETDVSSAKNVVLPTETEVAPAKDVTLLKETERASPIKMDLAPSKDMGPPKENKKETERASPIKMDLAPSKDMGPPKENKIVPAKDLVLLSEIEVAQANDIISSTEISSAEKVALSSETEVALARDMTLPPETNVILTKDKALPLEAEVAPVKDMAQLPETEIAPAKDVAPSTVKEVGLLKDMSPLSETEMALGKDVTPPPETEVVLIKNVCLPPEMEVALTEDQVPALKTEAPLAKDGVLTLANNVTPAKDVPPLSETEATPVPIKDMEIAQTQKGISEDSHLESLQDVGQSAAPTFMISPETVTGTGKKCSLPAEEDSVLEKLGERKPCNSQPSELSSETSGIARPEEGRPVVSGTGNDITTPPNKELPPSPEKKTKPLATTQPAKTSTSKAKTQPTSLPKQPAPTTIGGLNKKPMSLASGLVPAAPPKRPAVASARPSILPSKDVKPKPIADAKAPEKRASPSKPASAPASRSGSKSTQTVAKTTTAAAVASTGPSSRSPSTLLPKKPTAIKTEGKPAEVKKMTAKSVPADLSRPKSTSTSSMKKTTTLSGTAPAAGVVPSRVKATPMPSRPSTTPFIDKKPTSAKPSSTTPRLSRLATNTSAPDLKNVRSKVGSTENIKHQPGGGRAKVEKKTEAAATTRKPESNAVTKTAGPIASAQKQPAGKVQIVSKKVSYSHIQSKCGSKDNIKHVPGGGNVQIQNKKVDISKVSSKCGSKANIKHKPGGGDVKIESQKLNFKEKAQAKVGSLDNVGHLPAGGAVKTEGGGSEAPLCPGPPAGEEPAISEAAPEAGAPTSASGLNGHPTLSGGGDQREAQTLDSQIQETSI
For B2, the Kd (microtubules [4]) is listed as about 300 nM.

B3: MAP7: microtubule-associated protein (protein, UniProt Q14244 2-749, looked up)
Ensconsin: AELGAGGDGHRGGDGAVRSETAPDSYKVQDKKNASSRPASAISGQNNNHSGNKPDPPPVLRVDDRQRLARERREEREKQLAAREIVWLEREERARQHYEKHLEERKKRLEEQRQKEERRRAAVEEKRRQRLEEDKERHEAVVRRTMERSQKPKQKHNRWSWGGSLHGSPSIHSADPDRRSVSTMNLSKYVDPVISKRLSSSSATLLNSPDRARRLQLSPWESSVVNRLLTPTHSFLARSKSTAALSGEAASCSPIIMPYKAAHSRNSMDRPKLFVTPPEGSSRRRIIHGTASYKKERERENVLFLTSGTRRAVSPSNPKARQPARSRLWLPSKSLPHLPGTPRPTSSLPPGSVKAAPAQVRPPSPGNIRPVKREVKVEPEKKDPEKEPQKVANEPSLKGRAPLVKVEEATVEERTPAEPEVGPAAPAMAPAPASAPAPASAPAPAPVPTPAMVSAPSSTVNASASVKTSAGTTDPEEATRLLAEKRRLAREQREKEERERREQEELERQKREELAQRVAEERTTRREEESRRLEAEQAREKEEQLQRQAEERALREREEAERAQRQKEEEARVREEAERVRQEREKHFQREEQERLERKKRLEEIMKRTRRTEATDKKTSDQRNGDIAKGALTGGTEVSALPCTTNAPGNGKPVGSPHVVTSHQSKVTVESTPDLEKQPNENGVSVQNENFEEIINLPIGSKPSRLDVTNSESPEIPLNPILAFDDEGTLGPLPQVDGVQTQQTAEVI
In the case of B3, the Kd (microtubules [5]) is given as about 470 nM.

B4: UnaG: fluorogen-activating protein from Japanese eel muscle that reversibly binds bilirubin (protein, UniProt P0DM59 1-139, looked up)
Bilirubin-inducible …: MVEKFVGTWKIADSHNFGEYLKAIGAPKELSDGGDATTPTLYISQKDGDKMTVKIENGPPTFLDTQVKFKLGEEFDEFPSDRRKGVKSVVNLVGEKLVYVQKWDGKETTYVREIKDGKLVVTLTMGDVVAVRSYRRATE
For B4, the Kd [6] is listed as 0.098 nM.
